Here are results for one molecule from ChEMBL document CHEMBL1154193, “Carbonic anhydrase II-induced selection of inhibitors from a dynamic combinatorial library of Schiff's bases” (Bioorg Med Chem Lett, 2009).

The assay addresses Carbonic anhydrase 2 (Homo sapiens, UniProt P00918).

Description: Inhibition of human carbonic anhydrase 2-catalyzed CO2 hydration by stopped flow technique

Usually Ki stands for a dissociation constant, usually derived from enzyme kinetics or from competition with a known ligand. `NS(=O)(=O)c1ccc(/N=C/c2ccc(O)cc2)cc1` showed an inhibition constant (Ki) of 702 nM.
